For one experiment, the system named is MCF-7 cells. The experiment in a line: MTT anti-proliferative assay, MCF-7. Type of experiment: cell-based. Particulars: Homo sapiens, MCF7, 48 h, means ± SD of three experiments. The procedure: (§1) A series of novel enmein-type diterpenoid derivatives, 5a–m, were synthesized by introducing a side chain containing a carbamate moiety at the C-6 position of compound 4. The anticancer activities of 5a–m were tested against three human cancer cell lines and one human normal cell line by MTT assay.
(§2) Human non-small cell lung cancer cell lines (A549), human liver cancer cell lines (HepG2), human breast cancer cell lines (MCF-7), and human normal cell lines (L-02) were purchased from the cell bank of the Chinese Academy of Sciences. All cells were placed in RPMI-1640 medium (added 10% fetal bovine serum, […]) and cultured in an aseptic environment with 5% CO2 at 37 °C.
(§3) All derivatives were evaluated for their anti-proliferative activities against three cancer cell lines and one normal cell line by MTT assay. The cells in the logarithmic growth phase were inoculated into 96-well plates (3 × 10^3 cells/well) and incubated for 48 h in a sterile environment with 5% CO2 at 37 °C to make them attach via cell adhesion; then, the cells were co-incubated with target compounds for 48 h. After that, MTT solution (10 µL/well) was added to the cell culture medium to continue incubation for 4 h, following which the medium was replaced with DMSO (150 µL/well). The absorbance values at 490 nm were determined using an enzyme meter (Safire 2, Tecan, Männedorf, Switzerland) and further converted to half-inhibitory concentration values of these compounds.

The subject of a further experiment is HepG2 cells. The experiment in a line: MTT anti-proliferative assay, HepG2. Particulars: Homo sapiens, HepG2; MTT, 48 h; means ± SD of three experiments. In kind it is cell-based, human. The procedure:
as §1, §2, §3
(In general: Tetrazolium assays rely on reduction of a dye to a coloured formazan, in cell work by metabolically active cells.)

The next experiment concerns A549 cells. The experiment in a line: MTT anti-proliferative assay, A549. Type of experiment: cell-based, human. Particulars: for IC50: Homo sapiens, A549, MTT, 48 h, means ± SD of three experiments. As to the method: as §1, §2, §3
Another experiment relates to L-02 cells. The experiment in a line: MTT anti-proliferative assay, normal L-02 cells. The settings on record: means ± SD of three experiments. In kind it is cell-based. The procedure:
as §1, §2, §3

Molecules are shown by their SMILES. Bounds are passed on as bounds.

For orientation: IC50 means the midpoint of a concentration-inhibition curve. A higher IC50 goes with weaker potency.

As for `C=C1C(=O)C23C(=O)OC45CCC(C)(C)C6C(O)OCC64C2CCC1C3O5` (single isomer, unassigned; ent-6) [Compound 4, Ent-6β,14α-Dihydroxy-(1,7–1,14)-epoxy-7,15-dioxo-6,20-hemiketal-6,7-seco-16-kaurene], the IC50 in the experiment on MCF-7 cells came to 25.8 ± 1.14 µM; in the experiment on HepG2 cells, 27.4 ± 0.83 µM; in the experiment with A549 cells it was 23.8 ± 1.86 µM; in the experiment on L-02 cells (Homo sapiens, L02, 48 h), 30.2 ± 1.58 µM.
The like results for `C=C1C(=O)C23C(=O)OC45CCC(C)(C)C6C(OC(=O)N(C)C)OCC64C2CCC1C3O5` (single isomer, unassigned; ent-6) [Compound 5a, ent-6β,14α-Dihydroxy-(1,7–1,14)-epoxy-7,15-dioxo-6,20-hemiketal-6,7-seco-16-kaurene-6β-yl dimethylcarbamate] were, in that order, 30.7 ± 1.16 µM, 17.1 ± 1.39 µM, 14.7 ± 1.54 µM and > 50 µM.
On the same counts, the results for `C=C1C(=O)C23C(=O)OC45CCC(C)(C)C6C(OC(=O)N(CC)CC)OCC64C2CCC1C3O5` (single isomer, unassigned; ent-6) [Compound 5b, ent-6β,14α-Dihydroxy-(1,7–1,14)-epoxy-7,15-dioxo-6,20-hemiketal-6,7-seco-16-kaurene-6β-yl diethylcarbamate] are 17.6 ± 2.4 µM, 15.2 ± 1.58 µM, 15.8 ± 1.5 µM and > 50 µM.
Take `C=C1C(=O)C23C(=O)OC45CCC(C)(C)C6C(OC(=O)N(C)CC)OCC64C2CCC1C3O5` (single isomer, unassigned; ent-6) [Compound 5c, ent-6β,14α-Dihydroxy-(1,7–1,14)-epoxy-7,15-dioxo-6,20-hemiketal-6,7-seco-16-kaurene-6β-yl ethyl(methyl)carbamate]: the concentration for half-maximal inhibition (IC50) in the experiment on MCF-7 cells was 21.9 ± 2.72 µM; with HepG2 cells, 22.5 ± 3.42 µM; in the experiment with A549 cells, 20.2 ± 1.46 µM; in the experiment on L-02 cells (Homo sapiens, L02, 48 h), > 50 µM.
With `C=C1C(=O)C23C(=O)OC45CCC(C)(C)C6C(OC(=O)N(CCCl)CCCl)OCC64C2CCC1C3O5` (single isomer, unassigned; ent-6) [Compound 5d, ent-6β,14α-Dihydroxy-(1,7–1,14)-epoxy-7,15-dioxo-6,20-hemiketal-6,7-seco-16-kaurene-6β-yl bis(2-chloroethyl) carbamate], the concentration for half-maximal inhibition (IC50) in the experiment on MCF-7 cells was 15.6 ± 1.61 µM; in the experiment on HepG2 cells, 11 ± 1.45 µM; in the experiment with A549 cells it was 8.76 ± 1.56 µM; in the experiment on L-02 cells (L02, human normal cells, 48 h), 30.4 ± 3.44 µM.
As for `C=C1C(=O)C23C(=O)OC45CCC(C)(C)C6C(OC(=O)N7CCCC7)OCC64C2CCC1C3O5` (single isomer, unassigned; ent-6) [Compound 5f, ent-6β,14α-Dihydroxy-(1,7–1,14)-epoxy-7,15-dioxo-6,20-hemiketal-6,7-seco-16-kaurene-6β-yl pyrrolidine-1-carboxylate], the IC50 was determined as 20.7 ± 1.2 µM in the experiment with MCF-7 cells; 18.3 ± 1.36 µM with HepG2 cells; 13.4 ± 2.19 µM with A549 cells; 45.9 ± 2.3 µM in the experiment on L-02 cells (Homo sapiens, L02, 48 h).
On the same counts, the results for `C=C1C(=O)C23C(=O)OC45CCC(C)(C)C6C(OC(=O)N7CCCCC7)OCC64C2CCC1C3O5` (single isomer, unassigned; ent-6) [Compound 5g, ent-6β,14α-Dihydroxy-(1,7–1,14)-epoxy-7,15-dioxo-6,20-hemiketal-6,7-seco-16-kaurene-6β-yl piperidine-1-carboxylate] are 22.8 ± 2.13 µM, 21.1 ± 2.5 µM, 15.3 ± 2.4 µM and > 50 µM.
The like results for `C=C1C(=O)C23C(=O)OC45CCC(C)(C)C6C(OC(=O)N7CCCCCC7)OCC64C2CCC1C3O5` (single isomer, unassigned; ent-6) [Compound 5h, ent-6β,14α-Dihydroxy-(1,7–1,14)-epoxy-7,15-dioxo-6,20-hemiketal-6,7-seco-16-kaurene-6β-yl azepane-1-carboxylate] were, in that order, 24 ± 2.55 µM, 20.2 ± 1.33 µM, 18.4 ± 1.13 µM and > 50 µM.
The like results for `C=C1C(=O)C23C(=O)OC45CCC(C)(C)C6C(OC(=O)N7CCOCC7)OCC64C2CCC1C3O5` (single isomer, unassigned; ent-6) [Compound 5i, ent-6β,14α-Dihydroxy-(1,7–1,14)-epoxy-7,15-dioxo-6,20-hemiketal-6,7-seco-16-kaurene-6β-yl bmorpholine-4-carboxylate] were, in that order, 25.1 ± 3.34 µM, 23.7 ± 3.4 µM, 14.4 ± 1.42 µM and 38.1 ± 2.82 µM.
Take `C=C1C(=O)C23C(=O)OC45CCC(C)(C)C6C(OC(=O)N(c7ccccc7)c7ccccc7)OCC64C2CCC1C3O5` (single isomer, unassigned; ent-6) [Compound 5j, ent-6β,14α-Dihydroxy-(1,7–1,14)-epoxy-7,15-dioxo-6,20-hemiketal-6,7-seco-16-kaurene-6β-yl diphenylcarbamate]: the IC50 was 32.8 ± 2.95 µM in the experiment with MCF-7 cells; 34.1 ± 3.52 µM in the experiment on HepG2 cells; 23.3 ± 2.25 µM with A549 cells; > 50 µM with L-02 cells (Homo sapiens, L02, 48 h).
As to `C=C1C(=O)C23C(=O)OC45CCC(C)(C)C6C(OC(=O)N7c8ccccc8Sc8ccccc87)OCC64C2CCC1C3O5` (single isomer, unassigned; ent-6) [Compound 5k, ent-6β,14α-Dihydroxy-(1,7–1,14)-epoxy-7,15-dioxo-6,20-hemiketal-6,7-seco-16-kaurene-6β-yl 10H-phenothiazine-10-carboxylate], the IC50 was 26.3 ± 2.3 µM in the experiment on MCF-7 cells; 25.7 ± 2.16 µM with HepG2 cells; 17.2 ± 1.43 µM with A549 cells; > 50 µM with L-02 cells (Homo sapiens, L02, 48 h).
On the same counts, the results for `C=C1C(=O)C23C(=O)OC45CCC(C)(C)C6C(OC(=O)CCn7cccc7)OCC64C2CCC1C3O5` (single isomer, unassigned; ent-6) [Compound 5l, ent-6β,14α-Dihydroxy-(1,7–1,14)-epoxy-7,15-dioxo-6,20-hemiketal-6,7-seco-16-kaurene-6β-yl 3-(1H-pyrrol-1-yl) propanoate] are 15.9 ± 1.9 µM, 11.2 ± 1.82 µM, 8.3 ± 2.55 µM and > 50 µM.
For the molecule `C=C1C(=O)C23C(=O)OC45CCC(C)(C)C6C(OC(=O)CCN7C(=O)c8ccccc8C7=O)OCC64C2CCC1C3O5` (single isomer, unassigned; ent-6) [Compound 5m, ent-6β,14α-Dihydroxy-(1,7–1,14)-epoxy-7,15-dioxo-6,20-hemiketal-6,7-seco-16-kaurene-6β-yl 3-(1,3-dioxoisoindolin-2-yl) propanoate], the IC50 with MCF-7 cells was 12.3 ± 1.11 µM; in the experiment with HepG2 cells, 10.9 ± 1.25 µM; in the experiment with A549 cells, 6.85 ± 1.68 µM; in the experiment with L-02 cells (Homo sapiens, L02, 48 h), 32.5 ± 1.62 µM. Further, the “fold better than parental compound 4 (A549 IC50)” value with A549 cells (A549 cells) is on record as 3.48 fold.
Take `C=C1C(=O)C23C(=O)OC45CCC(C)(C)C6C(OC(=O)CCC(=O)NCc7ccccc7)OCC64C2CCC1C3O5` (single isomer, unassigned; ent-6) [Compound 7a, ent-6β,14α-Dihydroxy-(1,7–1,14)-epoxy-7,15-dioxo-6,20-hemiketal-6,7-seco-16-kaurene-6β-yl 4-(benzylamino)-4-oxobutanoate]: the 50% inhibitory concentration (IC50) in the experiment on MCF-7 cells is 10.8 ± 1.65 µM; with HepG2 cells it was 13.8 ± 2.19 µM; in the experiment with A549 cells, 10.2 ± 1.1 µM; with L-02 cells (L02, human normal cells, 48 h) it was > 50 µM.
Take `C=C1C(=O)C23C(=O)OC45CCC(C)(C)C6C(OC(=O)CCC(=O)NCc7ccc(C)cc7)OCC64C2CCC1C3O5` (single isomer, unassigned; ent-6) [Compound 7b, ent-6β,14α-Dihydroxy-(1,7–1,14)-epoxy-7,15-dioxo-6,20-hemiketal-6,7-seco-16-kaurene-6β-yl 4-((4-methylbenzyl)amino)-4-oxobutanoate]: the IC50 is 12.8 ± 1.64 µM with MCF-7 cells; 10.5 ± 1.68 µM in the experiment with HepG2 cells; 7.48 ± 1.31 µM in the experiment on A549 cells; > 50 µM in the experiment with L-02 cells (Homo sapiens, L02, 48 h).
`C=C1C(=O)C23C(=O)OC45CCC(C)(C)C6C(OC(=O)CCC(=O)NCc7ccc(OC)cc7)OCC64C2CCC1C3O5` (single isomer, unassigned; ent-6) [Compound 7c, ent-6β,14α-Dihydroxy-(1,7–1,14)-epoxy-7,15-dioxo-6,20-hemiketal-6,7-seco-16-kaurene-6β-yl 4-((4-meth0xybenzyl)amino)-4-oxobutanoate]: the IC50 was found to be 8.35 ± 1.96 µM in the experiment with MCF-7 cells; 12.8 ± 1.73 µM in the experiment with HepG2 cells; 8.37 ± 1.53 µM in the experiment on A549 cells; 34.4 ± 4.37 µM in the experiment on L-02 cells (Homo sapiens, L02, 48 h).
The like results for `C=C1C(=O)C23C(=O)OC45CCC(C)(C)C6C(OC(=O)CCC(=O)NCc7ccc(C(C)(C)C)cc7)OCC64C2CCC1C3O5` (single isomer, unassigned; ent-6) [Compound 7d, ent-6β,14α-Dihydroxy-(1,7–1,14)-epoxy-7,15-dioxo-6,20-hemiketal-6,7-seco-16-kaurene-6β-yl 4-((4-(tert-butyl)benz-yl)amino)-4-oxobutanoate] were, in that order, 7.64 ± 2.52 µM, 11.5 ± 1.58 µM, 6.41 ± 1.9 µM and 35.7 ± 2.66 µM.
